From patent US20230150974A1 (Foghorn Therapeutics Inc., priority 2020, published 2023)

Assays:
HiBiT-BRM = biological target: T1, HiBiT-BRM (Homo sapiens, UniProt P51531); test: HiBiT-BRM cell-based degradation assay (Nano-Glo HiBiT Lytic Detection); settings: HeLa cells expressing HiBiT-BRM, 24 h; for DC50: read-out: BRM HiBit Degradation IC50
T1 construct: expressed in transfected cells
Outline: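 Luminescence from HiBiT–LgBiT complementation in lysates of a stable HiBiT-BRM HeLa line measured after 24 h compound exposure. Degradation expressed as percent relative to DMSO-treated cells and cells given 2 μM of a known BRM/BRG1 degrader.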

HiBit-BRG1 = biological target: T2, HiBit-BRG1 (Homo sapiens, UniProt P51532); test: HiBit-BRG1 cell-based degradation assay (Nano-Glo HiBiT Lytic Detection); settings: HeLa cells expressing HiBit-BRG1 and LgBit, 24 h; for DC50: read-out: BRG1 HiBit Degradation IC50; for Dmax: read-out: BRG1 HiBit Degradation Maximum (%)
T2 construct: expressed in transfected cells
T2 sequence (P51532 whole entry): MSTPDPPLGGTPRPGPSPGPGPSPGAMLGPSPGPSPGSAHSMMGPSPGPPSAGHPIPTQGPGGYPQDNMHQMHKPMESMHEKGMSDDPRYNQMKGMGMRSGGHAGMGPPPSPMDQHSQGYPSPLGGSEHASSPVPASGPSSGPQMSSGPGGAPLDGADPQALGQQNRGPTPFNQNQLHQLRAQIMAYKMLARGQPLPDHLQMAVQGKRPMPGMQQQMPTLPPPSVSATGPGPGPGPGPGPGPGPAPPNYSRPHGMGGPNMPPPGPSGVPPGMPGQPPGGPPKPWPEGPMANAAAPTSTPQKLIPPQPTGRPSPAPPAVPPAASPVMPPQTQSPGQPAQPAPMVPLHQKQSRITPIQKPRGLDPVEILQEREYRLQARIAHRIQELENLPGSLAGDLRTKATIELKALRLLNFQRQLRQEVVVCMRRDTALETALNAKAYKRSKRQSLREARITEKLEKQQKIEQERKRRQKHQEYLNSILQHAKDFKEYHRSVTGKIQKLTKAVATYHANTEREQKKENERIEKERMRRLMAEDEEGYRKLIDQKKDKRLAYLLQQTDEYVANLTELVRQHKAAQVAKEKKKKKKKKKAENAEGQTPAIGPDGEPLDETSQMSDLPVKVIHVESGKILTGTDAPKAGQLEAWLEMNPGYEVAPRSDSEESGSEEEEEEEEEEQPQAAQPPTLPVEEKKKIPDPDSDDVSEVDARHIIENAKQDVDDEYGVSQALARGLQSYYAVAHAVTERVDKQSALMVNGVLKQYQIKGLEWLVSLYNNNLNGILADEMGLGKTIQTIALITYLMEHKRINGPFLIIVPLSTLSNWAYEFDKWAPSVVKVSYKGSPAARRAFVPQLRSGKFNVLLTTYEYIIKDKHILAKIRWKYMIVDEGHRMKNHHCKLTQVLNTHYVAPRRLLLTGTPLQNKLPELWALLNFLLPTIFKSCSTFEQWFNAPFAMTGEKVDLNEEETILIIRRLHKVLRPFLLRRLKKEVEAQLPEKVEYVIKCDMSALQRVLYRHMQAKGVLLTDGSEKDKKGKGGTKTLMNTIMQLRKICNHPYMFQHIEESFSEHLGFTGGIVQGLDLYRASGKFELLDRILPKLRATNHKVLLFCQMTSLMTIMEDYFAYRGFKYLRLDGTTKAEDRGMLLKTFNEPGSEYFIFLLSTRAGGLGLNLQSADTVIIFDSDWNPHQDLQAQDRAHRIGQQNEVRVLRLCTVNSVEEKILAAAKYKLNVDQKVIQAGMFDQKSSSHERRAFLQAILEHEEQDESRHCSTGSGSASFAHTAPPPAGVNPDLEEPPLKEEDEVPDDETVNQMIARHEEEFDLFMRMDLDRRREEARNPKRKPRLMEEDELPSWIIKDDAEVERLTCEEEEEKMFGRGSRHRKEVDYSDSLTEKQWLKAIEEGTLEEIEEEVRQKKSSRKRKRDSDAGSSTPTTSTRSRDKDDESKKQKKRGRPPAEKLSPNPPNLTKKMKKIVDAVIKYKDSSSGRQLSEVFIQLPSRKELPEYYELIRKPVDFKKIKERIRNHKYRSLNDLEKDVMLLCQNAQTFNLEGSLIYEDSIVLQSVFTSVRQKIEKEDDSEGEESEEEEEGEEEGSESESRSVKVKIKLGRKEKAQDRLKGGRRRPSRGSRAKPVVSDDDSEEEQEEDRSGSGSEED
Outline: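 Seed 5000 HeLa HiBit-BRG1/LgBit cells per well; treat 24 h; equilibrate 15 min at room temperature; add Nano-Glo HiBiT lytic reagent, shake 10 min, read luminescence. Percent degradation is scaled between DMSO and 2 μM reference degrader wells.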

T1 sequence (P51531 whole entry): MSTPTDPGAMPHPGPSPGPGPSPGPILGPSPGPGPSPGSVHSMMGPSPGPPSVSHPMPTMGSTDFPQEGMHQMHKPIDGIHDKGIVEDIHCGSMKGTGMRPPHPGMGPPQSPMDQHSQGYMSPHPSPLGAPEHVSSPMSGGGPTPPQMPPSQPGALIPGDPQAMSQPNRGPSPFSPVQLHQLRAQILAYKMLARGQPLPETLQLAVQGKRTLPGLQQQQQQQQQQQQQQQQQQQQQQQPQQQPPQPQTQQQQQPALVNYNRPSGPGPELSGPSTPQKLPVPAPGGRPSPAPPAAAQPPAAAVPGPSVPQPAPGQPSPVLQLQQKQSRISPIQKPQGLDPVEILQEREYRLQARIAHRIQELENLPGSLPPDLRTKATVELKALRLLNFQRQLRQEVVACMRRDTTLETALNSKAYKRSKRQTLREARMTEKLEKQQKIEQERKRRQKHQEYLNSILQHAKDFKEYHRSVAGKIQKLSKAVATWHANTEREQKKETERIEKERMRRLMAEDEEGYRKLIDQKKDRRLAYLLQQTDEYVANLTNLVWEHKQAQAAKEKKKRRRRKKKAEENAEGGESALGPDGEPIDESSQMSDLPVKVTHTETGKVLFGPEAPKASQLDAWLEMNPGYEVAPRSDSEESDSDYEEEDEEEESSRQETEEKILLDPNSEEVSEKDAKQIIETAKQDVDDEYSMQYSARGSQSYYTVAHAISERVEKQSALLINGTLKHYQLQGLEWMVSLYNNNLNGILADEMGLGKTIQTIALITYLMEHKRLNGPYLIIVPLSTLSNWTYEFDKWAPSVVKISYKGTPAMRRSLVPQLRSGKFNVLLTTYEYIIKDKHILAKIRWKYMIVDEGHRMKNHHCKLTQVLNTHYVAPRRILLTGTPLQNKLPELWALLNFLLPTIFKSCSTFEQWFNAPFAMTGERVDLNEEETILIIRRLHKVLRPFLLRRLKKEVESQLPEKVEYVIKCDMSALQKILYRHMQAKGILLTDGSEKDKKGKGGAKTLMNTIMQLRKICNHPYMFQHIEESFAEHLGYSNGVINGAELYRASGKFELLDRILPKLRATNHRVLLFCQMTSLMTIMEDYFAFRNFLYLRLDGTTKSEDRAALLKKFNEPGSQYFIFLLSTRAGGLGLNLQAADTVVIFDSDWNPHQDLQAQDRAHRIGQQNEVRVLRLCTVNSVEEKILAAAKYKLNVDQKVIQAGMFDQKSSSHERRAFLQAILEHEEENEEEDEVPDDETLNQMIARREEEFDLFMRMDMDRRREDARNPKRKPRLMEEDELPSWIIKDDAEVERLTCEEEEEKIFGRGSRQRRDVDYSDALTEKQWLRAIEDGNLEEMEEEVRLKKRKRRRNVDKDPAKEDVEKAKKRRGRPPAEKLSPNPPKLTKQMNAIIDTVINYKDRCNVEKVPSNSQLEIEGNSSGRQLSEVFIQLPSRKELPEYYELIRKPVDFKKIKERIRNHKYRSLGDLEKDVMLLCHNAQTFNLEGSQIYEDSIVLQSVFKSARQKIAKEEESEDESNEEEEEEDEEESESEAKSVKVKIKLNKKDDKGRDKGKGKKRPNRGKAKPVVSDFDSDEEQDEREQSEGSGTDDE

SMILES	BRM HiBit Degradation Maximum (%) (HiBiT-BRM)	DC50 (HiBiT-BRM) [nM]	DC50 (HiBit-BRG1) [nM]	Dmax (HiBit-BRG1) [%]
Cc1ncsc1-c1ccc([C@H](C)NC(=O)[C@@H]2C[C@@H](O)CN2C(=O)[C@@H](c2cc(OCCN3C[C@H]4CC[C@@H](C3)N4C(=O)c3ccc(CCOc4cc(-c5ccccc5O)nnc4N)cc3)no2)C(C)C)cc1 [Compound 220, (2S,4R)-1-((2R)-2-(3-(2-(8-(4-(2-((3-amino-6-(2-hydroxyphenyl)pyridazin-4-yl)oxy)ethyl)benzoyl)-3,8-diazabicyclo[3.2.1]octan-3-yl)ethoxy)isoxazol-5-yl)-3-methylbutanoyl)-4-hydroxy-N-((S)-1-(4-(4-methylthiazol-5-yl)phenyl)ethyl)pyrrolidine-2-carboxamide]	A (“A” indicates maximum degradation ≥75%)	< 10	> 10	> 75
Cc1ncsc1-c1ccc([C@H](C)NC(=O)[C@@H]2C[C@@H](O)CN2C(=O)[C@@H](c2cc(OCCN3[C@@H]4CC[C@H]3CN(C(=O)c3ccc(CCOc5cc(-c6ccccc6O)nnc5N)cc3)C4)no2)C(C)C)cc1 [Compound 221, (2S,4R)-1-[(2R)-2-[3-(2-[3-[4-(2-[[3-amino-6-(2-hydroxyphenyl)pyridazin-4-yl]oxy]ethyl)benzoyl]-3,8-diazabicyclo[3.2.1]octan-8-yl]ethoxy)-1,2-oxazol-5-yl]-3-methylbutanoyl]-4-hydroxy-N-[(1S)-1-[4-(4-methyl-1,3-thiazol-5-yl)phenyl]ethyl]pyrrolidine-2-carboxamide]	A (“A” indicates maximum degradation ≥75%)	> 10	< 10	> 75
Cc1ncsc1-c1ccc([C@H](C)NC(=O)[C@@H]2C[C@@H](O)CN2C(=O)[C@@H](c2cc(OCCN3CC(C4CN(C(=O)c5ccc(CCOc6cc(-c7ccccc7O)nnc6N)cc5)C4)C3)no2)C(C)C)cc1 [Compound 222, (2S,4R)-1-((R)-2-(3-(2-(1′-(4-(2-((3-amino-6-(2-hydroxyphenyl)pyridazin-4-yl)oxy)ethyl)benzoyl)-[3,3'-biazetidin]-1-yl)ethoxy)isoxazol-5-yl)-3-methylbutanoyl)-4-hydroxy-N-((S)-1-(4-(4-methylthiazol-5-yl)phenyl)ethyl)pyrrolidine-2-carboxamide]	A (“A” indicates maximum degradation ≥75%)	> 100	> 100	> 75
Cc1ncsc1-c1ccc(CNC(=O)[C@@H]2C[C@@H](O)CN2C(=O)[C@@H](NC(=O)CCCCCCCCCCCCCCC(=O)N(C)Cc2ccc(CCOc3cc(-c4ccccc4O)nnc3N)cc2)C(C)(C)C)cc1 [Compound 223, N1-(4-(2-((3-amino-6-(2-hydroxyphenyl)pyridazin-4-yl)oxy)ethyl)benzyl)-N16-((S)-1-((2S,4R)-4-hydroxy-2-((4-(4-methylthiazol-5-yl)benzyl)carbamoyl)pyrrolidin-1-yl)-3,3-dimethyl-1-oxobutan-2-yl)-N1-methylhexadecanediamide]	A (“A” indicates maximum degradation ≥75%)	> 100	> 1000	< 50
Cc1ncsc1-c1ccc(CNC(=O)[C@@H]2C[C@@H](O)CN2C(=O)[C@@H](NC(=O)CCN2CC(C3CN(C(=O)c4ccc(CCOc5cc(-c6ccccc6O)nnc5N)cc4)C3)C2)C(C)(C)C)cc1 [Compound 224, (2S,4R)-1-((S)-2-(3-(1′-(4-(2-((3-amino-6-(2-hydroxyphenyl)pyridazin-4-yl)oxy)ethyl)benzoyl)-[3,3′-biazetidin]-1-yl)propanamido)-3,3-dimethylbutanoyl)-4-hydroxy-N-(4-(4-methylthiazol-5-yl)benzyl)pyrrolidine-2-carboxamide]	C (“C” indicates maximum degradation <50%)	> 1000	> 1000	< 50
Cc1ncsc1-c1ccc([C@H](C)NC(=O)[C@@H]2C[C@@H](O)CN2C(=O)[C@@H](c2cc(OCCN3CC4CN(C(=O)c5ccc(CCOc6cc(-c7ccccc7O)nnc6N)cc5)CC43)no2)C(C)C)cc1 (stereo partly drawn) [Compound 225, (2S,4R)-1-((2R)-2-(3-(2-(3-(4-(2-((3-amino-6-(2-hydroxyphenyl)pyridazin-4-yl)oxy)ethyl)benzoyl)-3,6-diazabicyclo[3.2.0]heptan-6-yl)ethoxy)isoxazol-5-yl)-3-methylbutanoyl)-4-hydroxy-N-((S)-1-(4-(4-methylthiazol-5-yl)phenyl)ethyl)pyrrolidine-2-carboxamide]	A (“A” indicates maximum degradation ≥75%)	> 100	> 100	> 75
Cc1ncsc1-c1ccc(CNC(=O)[C@@H]2C[C@@H](O)CN2C(=O)[C@@H](NC(=O)CCN2C[C@H]3CC[C@@H](C2)N3C(=O)c2ccc(CCOc3cc(-c4ccccc4O)nnc3N)cc2)C(C)(C)C)cc1 [Compound 226, (2S,4R)-1-((2S)-2-(3-(8-(4-(2-((3-amino-6-(2-hydroxyphenyl)pyridazin-4-yl)oxy)ethyl)benzoyl)-3,8-diazabicyclo[3.2.1]octan-3-yl)propanamido)-3,3-dimethylbutanoyl)-4-hydroxy-N-(4-(4-methylthiazol-5-yl)benzyl)pyrrolidine-2-carboxamide]	B (“B” indicates maximum degradation ≥50%)	> 1000	> 1000	< 50
Cc1ncsc1-c1ccc([C@H](C)NC(=O)[C@@H]2C[C@@H](O)CN2C(=O)[C@@H](NC(=O)CCCCCCCCCCCCCCCC(=O)N(C)Cc2ccc(CCOc3cc(-c4ccccc4O)nnc3N)cc2)C(C)(C)C)cc1 [Compound 227, N1-(4-(2-((3-amino-6-(2-hydroxyphenyl)pyridazin-4-yl)oxy)ethyl)benzyl)-N17-((S)-1-((2S,4R)-4-hydroxy-2-(((S)-1-(4-(4-methylthiazol-5-yl)phenyl)ethyl)carbamoyl)pyrrolidin-1-yl)-3,3-dimethyl-1-oxobutan-2-yl)-N1-methylheptadecanediamide]	A (“A” indicates maximum degradation ≥75%)	> 10	> 100	> 75
Cc1ncsc1-c1ccc(CNC(=O)[C@@H]2C[C@@H](O)CN2C(=O)[C@@H](NC(=O)CCCCCCCCCCCCCCCC(=O)N(C)Cc2ccc(CCOc3cc(-c4ccccc4O)nnc3N)cc2)C(C)(C)C)cc1 [Compound 228, N1-(4-(2-((3-amino-6-(2-hydroxyphenyl)pyridazin-4-yl)oxy)ethyl)benzyl)-N17-((S)-1-((2S,4R)-4-hydroxy-2-((4-(4-methylthiazol-5-yl)benzyl)carbamoyl)pyrrolidin-1-yl)-3,3-dimethyl-1-oxobutan-2-yl)-N1-methylheptadecanediamide]	A (“A” indicates maximum degradation ≥75%)	> 100	> 100	> 75
Cc1ncsc1-c1ccc([C@H](C)NC(=O)[C@@H]2C[C@@H](O)CN2C(=O)[C@@H](c2cc(OCCNCCCCCCC(=O)NCc3ccc(CCOc4cc(-c5ccccc5O)nnc4N)cc3)no2)C(C)C)cc1 [Compound 229, (2S,4R)-1-((R)-2-(3-(2-((7-((4-(2-((3-amino-6-(2-hydroxyphenyl)pyridazin-4-yl)oxy)ethyl)benzyl)amino)-7-oxoheptyl)amino)ethoxy)isoxazol-5-yl)-3-methylbutanoyl)-4-hydroxy-N-((S)-1-(4-(4-methylthiazol-5-yl)phenyl)ethyl)pyrrolidine-2-carboxamide]	B (“B” indicates maximum degradation ≥50%)	> 1000	> 1000	< 50
Cc1ncsc1-c1ccc([C@H](C)NC(=O)[C@@H]2C[C@@H](O)CN2C(=O)[C@@H](c2cc(OCCNCCC(=O)NCc3ccc(CCOc4cc(-c5ccccc5O)nnc4N)cc3)no2)C(C)C)cc1 [Compound 230, (2S,4R)-1-((R)-2-(3-(2-((3-((4-(2-((3-amino-6-(2-hydroxyphenyl)pyridazin-4-yl)oxy)ethyl)benzyl)amino)-3-oxopropyl)amino)ethoxy)isoxazol-5-yl)-3-methylbutanoyl)-4-hydroxy-N-((S)-1-(4-(4-methylthiazol-5-yl)phenyl)ethyl)pyrrolidine-2-carboxamide]	A (“A” indicates maximum degradation ≥75%)	> 100	> 1000	> 75
Cc1ncsc1-c1ccc(CNC(=O)[C@@H]2C[C@@H](O)CN2C(=O)[C@@H](NC(=O)CCN2CC3CN(C(=O)c4ccc(CCOc5cc(-c6ccccc6O)nnc5N)cc4)CC32)C(C)(C)C)cc1 (stereo partly drawn) [Compound 231, (2S,4R)-1-((2S)-2-(3-(3-(4-(2-((3-amino-6-(2-hydroxyphenyl)pyridazin-4-yl)oxy)ethyl)benzoyl)-3,6-diazabicyclo[3.2.0]heptan-6-yl)propanamido)-3,3-dimethylbutanoyl)-4-hydroxy-N-(4-(4-methylthiazol-5-yl)benzyl)pyrrolidine-2-carboxamide]	C (“C” indicates maximum degradation <50%)	> 1000	> 1000	< 50
Cc1ncsc1-c1ccc(CNC(=O)[C@@H]2C[C@@H](O)CN2C(=O)[C@@H](NC(=O)CCN2CCN(CCOc3cc(N4[C@@H]5CC[C@H]4CN(c4cc(-c6ccccc6O)nnc4N)C5)ccn3)CC2)C(C)(C)C)cc1 [Compound 232, (2S,4R)-1-((2S)-2-(3-(4-(2-((4-(3-(3-amino-6-(2-hydroxyphenyl)pyridazin-4-yl)-3,8-diazabicyclo[3.2.1]octan-8-yl)pyridin-2-yl)oxy)ethyl)piperazin-1-yl)propanamido)-3,3-dimethylbutanoyl)-4-hydroxy-N-(4-(4-methylthiazol-5-yl)benzyl)pyrrolidine-2-carboxamide]	A (“A” indicates maximum degradation ≥75%)	> 100	> 1000	< 50
